Results taken from PMC5750218, “Protein-inspired antibiotics active against vancomycin- and daptomycin-resistant bacteria” (Nature Communications, 2018).
≈ marks a conversion by molar mass, not a printed value.

Tests used:
[1] = tested on: S. aureus (MRSA) ATCC 43300; assay: Resistance frequency assay; assay type: cell-based; conditions: Staphylococcus aureus; TSB 1% agarose, 0.002% Tween 80; read-out: Agarose plate MIC
Procedure: The resistance frequency for Compound 19 was determined following literature procedures[41], [42].
Compound 19 was prepared to 160 µg mL^−1 solution in water from the given stock solution of 1 mM concentration. Vancomycin was prepared to 1.28 mg mL^−1 solution in water.
Tryptic soy broth (TSB) with 1% agarose and 0.002% Tween 80 was maintained at 45 to 50 °C in a water bath. 160 mL of agarose was transferred to 200 mL glass bottle, maintaining the remaining agarose in the water bath. […] A volume of 80 mL of agarose sample [A] was plated in four petri plates (duplicates/condition—neat, 10^−1) with swirling to ensure that the bottom of the plate was coated equally. An additional 80 mL of fresh agarose was added to the remaining 80 mL of agarose [A] sample to achieve a twofold dilution to provide agarose sample [B]. Once again, 80 mL of agarose sample [B] was plated in four petri plates. […]
Bacteria were subcultured at 37 °C overnight with shaking at 220 rpm. […] Resultant separated visible colonies were counted; those colonies that grow together were not included to determine the titre of the culture. […]
The colonies were counted after 24 h. The resistance frequency is determined by dividing the number of colonies obtained on the plates containing the antibacterial agent by the number of cells plated.

HepG2 cells = assay: Cytotoxicity MTT assay; assay type: cell-based, human
[2] = SPR membrane binding assay; conditions: L1 chip, DMPC / DMPG bilayers
Procedure: SPR experiments were performed using a BIAcore 3000 (GE Health) instrument with a Biacore vesicle capture L1 sensor chip. […] Small unilamellar vesicles (SUV) were prepared in phosphate buffered saline (PBS) (pH 7.4) by sonication and extrusion. […] PBS was then added into each flask to give a suspension, which was sonicated for 5 cycles of 5 min each. […] The SUVs were injected across the L1 sensor chip for 30 min at a flow rate of […] to form a supported lipid bilayer. The coverage of the lipid bilayer was determined from the extent of non-specific binding of bovine serum albumin (0.1 mg mL^-1 in PBS, 5 min injection). A series of concentrations of vancomycin and […] passed sequentially over the different phospholipid-containing flow cells at a flow rate of 30 μL min^-1 for 180 s. The amount of antibiotic bound at equilibrium just before the end of the injection was corrected by subtraction of the bulk-refractive index difference observed at the beginning and the end of each injection. After each injection cycle, the lipid surface was regenerated with 20 mM 3-[(3-cholamidopropyl)dimethylammonio]-1-propanesulfonate (CHAPS) and a fresh lipid bilayer was loaded as described above. All assays were carried out at 25 °C in triplicate. […]

[3] = Critical micelle concentration assay; assay type: physicochemical; conditions: 0.2 M NaCl, DPH
Procedure: CMCs were determined as previously described[46] with a higher throughput modification. Briefly, a cascade dilution of each antibiotic was performed in a low binding polypropylene V-bottom shaped 96-well plates in the presence of 0.2 M NaCl solution across 12 concentrations ranging from 1000 to 0.1 μM, except the control melittin (100 to 0.01 μM). An identical cascade dilution was performed for the neutral detergent Triton X-100 and the anionic detergent sodium dodecyl sulphate (SDS) starting from 0.1% down to 0.00001% (vol:vol for Triton X-100 and wt:vol for SDS). An aliquot of […] (DPH) in DMSO was added in each well to yield the final DPH concentration of 5 μM. The reaction mixtures were mixed for 30 s and transferred in horizontal triplicate (25 μL per well) into a black falcon 384-well plate. The 384-well plate was then sealed, wrapped up in aluminium foil and incubated for 30 min at room temperature. The fluorescence intensity was monitored in real time using a BMG Labtech PolarStar Omega multimode reader fitted with 360-10 and 430-10 excitation and emission filters respectively, at an excitation wavelength of 360 nm and an emission wavelength of 430 nm.

CN[C@H](CC(C)C)C(=O)N[C@H]1C(=O)N[C@@H](CC(N)=O)C(=O)N[C@H]2C(=O)N[C@H]3C(=O)N[C@H](C(=O)N[C@H](C(=O)O)c4cc(O)cc(O)c4-c4cc3ccc4O)[C@H](O)c3ccc(c(Cl)c3)Oc3cc2cc(c3O[C@@H]2O[C@H](CO)[C@@H](O)[C@H](O)[C@H]2O[C@H]2C[C@](C)(N)[C@H](O)[C@H](C)O2)Oc2ccc(cc2Cl)[C@H]1O [Compound 1, Vancomycin]
MIC [1]: 1 µg/mL (≈ 0.69 µM)

CN[C@H]1C(=O)N[C@@H]2Cc3ccc(cc3)Oc3cc4cc(c3O[C@@H]3O[C@H](C(=O)O)[C@@H](O)[C@H](O)[C@H]3NC(=O)CCCCCCCCC(C)C)Oc3ccc(cc3Cl)[C@@H](O)[C@@H]3NC(=O)[C@H](NC(=O)[C@@H]4NC(=O)[C@@H](NC2=O)c2cc(cc(O)c2Cl)Oc2cc1ccc2O)c1ccc(O)c(c1)-c1c(O[C@H]2O[C@H](CO)[C@@H](O)[C@H](O)[C@@H]2O)cc(O)cc1[C@@H](C(=O)NCCCN(C)C)NC3=O [Compound 3, Dalbavancin]
CC50 (HepG2 cells): 259 µM

CCCCCCCCCCCCCC(=O)N[C@@H](CCCCN)C(=O)N[C@@H](CCCCN)C(=O)N[C@@H](CCCCN)C(=O)N[C@@H](CCCCNC(=O)[C@H]1NC(=O)[C@H]2NC(=O)[C@H](NC(=O)[C@@H]3NC(=O)[C@H](CC(N)=O)NC(=O)[C@H](NC(=O)[C@@H](CC(C)C)NC)[C@H](O)c4ccc(c(Cl)c4)Oc4cc3cc(c4O[C@@H]3O[C@H](CO)[C@@H](O)[C@H](O)[C@H]3O[C@H]3C[C@](C)(N)[C@H](O)[C@H](C)O3)Oc3ccc(cc3Cl)[C@H]2O)c2ccc(O)c(c2)-c2c(O)cc(O)cc21)C(=O)O [Compound 17, nC13CO-KKK-K(Vancomycin)-OH]
Membrane association by SPR compared to vancomycin [2]: Increased membrane association | critical micelle concentration (CMC) [3]: exceed 100 µM
